Reference: patent publication US20230157952A1, “METHOD FOR IMPROVING THE STABILITY OF A PHARMACEUTICAL COMPOSITION COMPRISING A HIGH PENETRATION DRUG, AND THE PHARMACEUTICAL COMPOSITION OBTAINED THEREFROM” (Techfields Inc., priority 2020, published 2023)
Blank lines part the entries; values can stand above or below the compound they belong to.

Assay: Effect of concentration on the stability of the solution (purity over time)
Settings: for Stability of common ester over the concentrations tested: 0.01% to 10% (or higher) in 50% ethanol at 25° C.; for Purity (%) at Day 3 / Purity (%) at Day 7 / Purity (%) at hr 0 / Purity (%) at hr 24 / Purity(%) at Day 14 / Purity(%) at Day 28 / Purity(%) at Day 21: 25° C.

Stability of common ester over the concentrations tested: very stable | Purity (%) at Day 3 (0.01 wt % in 50% ethanol): 98.1% | Purity (%) at Day 7 (0.01 wt % in 50% ethanol): 98.3% | Purity (%) at hr 0 (0.01 wt % in 50% ethanol): 98.4% | Purity (%) at hr 24 (0.01 wt % in 50% ethanol): 98.3% | Purity(%) at Day 14 (0.01 wt % in 50% ethanol): 98.2% | Purity(%) at Day 28 (0.01 wt % in 50% ethanol): 98.2% | Purity (%) at Day 3 (0.1 wt % in 50% ethanol): 98.4% | Purity (%) at Day 7 (0.1 wt % in 50% ethanol): 98.4% | Purity (%) at hr 0 (0.1 wt % in 50% ethanol): 98.4% | Purity (%) at hr 24 (0.1 wt % in 50% ethanol): 98.5% | Purity(%) at Day 14 (0.1 wt % in 50% ethanol): 98.3% | Purity(%) at Day 28 (0.1 wt % in 50% ethanol): 98.3% | Purity (%) at Day 3 (1 wt % in 50% ethanol): 98.5% | Purity (%) at Day 7 (1 wt % in 50% ethanol): 98.4% | Purity (%) at hr 0 (1 wt % in 50% ethanol): 98.5% | Purity (%) at hr 24 (1 wt % in 50% ethanol): 98.4% | Purity(%) at Day 14 (1 wt % in 50% ethanol): 98.3% | Purity(%) at Day 28 (1 wt % in 50% ethanol): 98.3% | Purity (%) at Day 3 (3 wt % in 50% ethanol): 98.4% | Purity (%) at Day 7 (3 wt % in 50% ethanol): 98.4% | Purity (%) at hr 0 (3 wt % in 50% ethanol): 98.4% | Purity (%) at hr 24 (3 wt % in 50% ethanol): 98.6% | Purity(%) at Day 14 (3 wt % in 50% ethanol): 98.4% | Purity(%) at Day 28 (3 wt % in 50% ethanol): 98.4% | Purity (%) at Day 3 (5 wt % in 50% ethanol): 98.7% | Purity (%) at Day 7 (5 wt % in 50% ethanol): 98.4% | Purity (%) at hr 0 (5 wt % in 50% ethanol): 98.5% | Purity (%) at hr 24 (5 wt % in 50% ethanol): 98.4% | Purity(%) at Day 14 (5 wt % in 50% ethanol): 98.4% | Purity(%) at Day 28 (5 wt % in 50% ethanol): 98.4% | Purity (%) at Day 3 (10 wt % in 50% ethanol): 98.4% | Purity (%) at Day 7 (10 wt % in 50% ethanol): 98.4% | Purity (%) at hr 0 (10 wt % in 50% ethanol): 98.5% | Purity (%) at hr 24 (10 wt % in 50% ethanol): 98.8% | Purity(%) at Day 14 (10 wt % in 50% ethanol): 98.4% | Purity(%) at Day 28 (10 wt % in 50% ethanol): 98.4%
Structure (SMILES): CC(C)OC(=O)c1ccccc1 [Isopropyl benzoate, reference compound]

Stability of common ester over the concentrations tested: not stable | Purity (%) at Day 3 (0.01 wt % in 50% ethanol): 92.1% | Purity (%) at Day 7 (0.01 wt % in 50% ethanol): 89.4% | Purity (%) at hr 0 (0.01 wt % in 50% ethanol): 98.0% | Purity (%) at hr 24 (0.01 wt % in 50% ethanol): 96.1% | Purity(%) at Day 14 (0.01 wt % in 50% ethanol): 83.0% | Purity(%) at Day 21 (0.01 wt % in 50% ethanol): 60.2% | Purity(%) at Day 28 (0.01 wt % in 50% ethanol): 35.2% | Purity (%) at Day 3 (0.1 wt % in 50% ethanol): 93.1% | Purity (%) at Day 7 (0.1 wt % in 50% ethanol): 91.4% | Purity (%) at hr 0 (0.1 wt % in 50% ethanol): 98.0% | Purity (%) at hr 24 (0.1 wt % in 50% ethanol): 96.4% | Purity(%) at Day 14 (0.1 wt % in 50% ethanol): 86.1% | Purity(%) at Day 21 (0.1 wt % in 50% ethanol): 64.1% | Purity(%) at Day 28 (0.1 wt % in 50% ethanol): 41.0% | Purity (%) at Day 3 (1 wt % in 50% ethanol): 93.9% | Purity (%) at Day 7 (1 wt % in 50% ethanol): 92.2% | Purity (%) at hr 0 (1 wt % in 50% ethanol): 98.1% | Purity (%) at hr 24 (1 wt % in 50% ethanol): 96.7% | Purity(%) at Day 14 (1 wt % in 50% ethanol): 88.9% | Purity(%) at Day 21 (1 wt % in 50% ethanol): 70.9% | Purity(%) at Day 28 (1 wt % in 50% ethanol): 48.9% | Purity (%) at Day 3 (3 wt % in 50% ethanol): 94.6% | Purity (%) at Day 7 (3 wt % in 50% ethanol): 92.4% | Purity (%) at hr 0 (3 wt % in 50% ethanol): 98.2% | Purity (%) at hr 24 (3 wt % in 50% ethanol): 96.9% | Purity(%) at Day 14 (3 wt % in 50% ethanol): 89.5% | Purity(%) at Day 21 (3 wt % in 50% ethanol): 72.4% | Purity(%) at Day 28 (3 wt % in 50% ethanol): 50.4% | Purity (%) at Day 3 (5 wt % in 50% ethanol): 94.8% | Purity (%) at Day 7 (5 wt % in 50% ethanol): 93.1% | Purity (%) at hr 0 (5 wt % in 50% ethanol): 98.1% | Purity (%) at hr 24 (5 wt % in 50% ethanol): 97.0% | Purity(%) at Day 14 (5 wt % in 50% ethanol): 90.0% | Purity(%) at Day 21 (5 wt % in 50% ethanol): 73.0% | Purity(%) at Day 28 (5 wt % in 50% ethanol): 56.9% | Purity (%) at Day 3 (10 wt % in 50% ethanol): 95.9% | Purity (%) at Day 7 (10 wt % in 50% ethanol): 93.9% | Purity (%) at hr 0 (10 wt % in 50% ethanol): 98.2% | Purity (%) at hr 24 (10 wt % in 50% ethanol): 97.6% | Purity(%) at Day 14 (10 wt % in 50% ethanol): 91.0% | Purity(%) at Day 21 (10 wt % in 50% ethanol): 74.9% | Purity(%) at Day 28 (10 wt % in 50% ethanol): 59.2%
Structure (SMILES): CC(C)(C)OC(=O)C(N)Cc1ccccc1 (centres unmarked) [t-Butyl 2-amino-3-phenylpropanoate, reference compound]
